One may read the Kd as the constant that tells how readily two partners part at equilibrium.

The target of the assay is JAK2 (JH1 domain-catalytic, Y1007F, Y1008F) kinase (Homo sapiens (Human), UniProt O60674, Y1007F/Y1008F). Briefly: JAK2 JH1 Domain Binding Assay. The note with it: qPCR readout. The method in brief: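 JH1 catalytic domain (Y1007F/Y1008F) expressed as NFkB DNA-binding-domain fusion in HEK293 cells, DNA-tagged. Competition with immobilized biotinylated ligand on streptavidin beads, 1 h at RT in PBS/Tween/BSA/DTT; bound kinase eluted with free ligand and quantified by qPCR.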
Chain of JAK2 (JH1 domain-catalytic, Y1007F, Y1008F) kinase (O60674 849-1124 Y1007F/Y1008F): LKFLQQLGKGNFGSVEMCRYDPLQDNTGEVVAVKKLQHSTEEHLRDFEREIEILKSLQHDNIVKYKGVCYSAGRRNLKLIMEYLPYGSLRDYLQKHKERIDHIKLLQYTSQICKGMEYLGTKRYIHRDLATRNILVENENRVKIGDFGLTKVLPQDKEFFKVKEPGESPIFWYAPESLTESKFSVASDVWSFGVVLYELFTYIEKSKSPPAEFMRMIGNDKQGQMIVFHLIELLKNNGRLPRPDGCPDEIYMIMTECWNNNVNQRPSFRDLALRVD
(In qPCR the cycle at which signal appears reflects the starting amount.)
As for `CN(C(=O)Nc1cc(C(F)(F)F)cn(C)c1=O)C12CC(c3cnc4[nH]ncc4c3)(C1)C2` [Example I-116, 1-(3-(1H-pyrazolo[3,4-b]pyridin-5-yl)bicyclo[1.1.1]pentan-1-yl)-1-methyl-3-(1-methyl-2-oxo-5-(trifluoromethyl)-1,2-dihydropyridin-3-yl)urea], the Kd was less than 10 nM.
In the case of `CN(C(=O)Nc1cc(C(F)(F)F)cn(C)c1=O)[C@H]1CCN(c2cnc3[nH]ncc3c2)C[C@H]1F` (stereo in doubt) [Example I-62-a, 1-((3R,4S)-3-fluoro-1-(1H-pyrazolo[3,4-b]pyridin-5-yl)piperidin-4-yl)-1-methyl-3-(1-methyl-2-oxo-5-(trifluoromethyl)-1,2-dihydropyridin-3-yl)urea] it was less than 10 nM; in that of `COc1n[nH]c2ncc(N3CC[C@@H](N(C)C(=O)Nc4cc(C(F)(F)F)cn(C)c4=O)[C@H](OC)C3)cc12` [Example I-108-a, 1-((3R,4R)-3-methoxy-1-(3-methoxy-1H-pyrazolo[3,4-b]pyridin-5-yl)piperidin-4-yl)-1-methyl-3-(1-methyl-2-oxo-5-(trifluoromethyl)-1,2-dihydropyridin-3-yl)urea], 10 to 50 nM; in that of `CN(C(=O)Nc1cc(C(F)(F)F)cn(C)c1=O)C1CCN(c2cnc3[nH]cnc3c2)CC1` [Example I-38, 1-(1-(3H-imidazo[4,5-b]pyridin-6-yl)piperidin-4-yl)-1-methyl-3-(1-methyl-2-oxo-5-(trifluoromethyl)-1,2-dihydropyridin-3-yl)urea], 10 to 50 nM.
For `CN(C(=O)Nc1cc(C(F)(F)F)cn(C)c1=O)[C@@H]1CCN(c2cnc3[nH]ncc3n2)C[C@@H]1F` [Example I-83-b, 1-((3S,4R)-3-fluoro-1-(1H-pyrazolo[3,4-b]pyrazin-5-yl)piperidin-4-yl)-1-methyl-3-(1-methyl-2-oxo-5-(trifluoromethyl)-1,2-dihydropyridin-3-yl)urea] the value was less than 10 nM; for `CN(C(=O)Nc1cc(C(F)(F)F)cn(C)c1=O)[C@H]1CCN(c2cnc3[nH]n(C)c(=O)c3c2)C[C@H]1F` [Example I-89-b, 1-((3R,4S)-3-fluoro-1-(2-methyl-3-oxo-2,3-dihydro-1H-pyrazolo[3,4-b]pyridin-5-yl)piperidin-4-yl)-1-methyl-3-(1-methyl-2-oxo-5-(trifluoromethyl)-1,2-dihydropyridin-3-yl)urea], 10 to 50 nM.
In the case of `CN(C(=O)Nc1cc(C(F)(F)F)cn(C)c1=O)[C@@H]1CCN(c2cnc3[nH]nc(OC4CCOCC4)c3c2)C[C@@H]1F` [Example I-107-a, 1-((3S,4R)-3-fluoro-1-(3-((tetrahydro-2H-pyran-4-yl)oxy)-1H-pyrazolo[3,4-b]pyridin-5-yl)piperidin-4-yl)-1-methyl-3-(1-methyl-2-oxo-5-(trifluoromethyl)-1,2-dihydropyridin-3-yl)urea] it was less than 10 nM; in that of `CN(C(=O)Nc1cncc(C(F)(F)F)c1)[C@@H]1CCN(c2cnc3[nH]ncc3c2)CC1(F)F.CN(C(=O)Nc1cncc(C(F)(F)F)c1)[C@H]1CCN(c2cnc3[nH]ncc3c2)CC1(F)F` (mixture of isomers) [Example I-147-a, (R)-1-(3,3-difluoro-1-(1H-pyrazolo[3,4-b]pyridin-5-yl)piperidin-4-yl)-1-methyl-3-(5-(trifluoromethyl)pyridin-3-yl)urea and (S)-1-(3,3-difluoro-1-(1H-pyrazolo[3,4-b]pyridin-5-yl)piperidin-4-yl)-1-methyl-3-(5-(trifluoromethyl)pyridin-3-yl)urea], less than 10 nM.
Consider `COc1c[nH]c2ncc(N3CC[C@H](N(C)C(=O)Nc4cc(C(F)(F)F)cn(C)c4=O)[C@H](F)C3)nc12` [Example I-151, 1-((3R,4S)-3-fluoro-1-(7-methoxy-5H-pyrrolo[2,3-b]pyrazin-2-yl)piperidin-4-yl)-1-methyl-3-(1-methyl-2-oxo-5-(trifluoromethyl)-1,2-dihydropyridin-3-yl)urea], for which the equilibrium dissociation constant (Kd) was less than 10 nM.
`CC(=O)Nc1cnc(N2CCC(N(C)C(=O)Nc3cc(CN4CCN(C)CC4)cc(C(F)(F)F)c3)CC2)cn1` [Example I-19, N-(5-(4-(1-methyl-3-(3-((4-methylpiperazin-1-yl)methyl)-5-(trifluoromethyl)phenyl)ureido)piperidin-1-yl)pyrazin-2-yl)acetamide] gave a dissociation constant Kd of 10 to 50 nM.
Take `CC(=O)Nc1c[nH]c2ncc(N3CC[C@@H](N(C)C(=O)Nc4cc(C(F)(F)F)cn(C)c4=O)C(F)(F)C3)cc12` (mixture of isomers) [Example I-172-a, (R)—N-(5-(3,3-difluoro-4-(1-methyl-3-(1-methyl-2-oxo-5-(trifluoromethyl)-1,2-dihydropyridin-3-yl)ureido)piperidin-1-yl)-1H-pyrrolo[2,3-b]pyridin-3-yl)acetamide and (S)—N-(5-(3,3-difluoro-4-(1-methyl-3-(1-methyl-2-oxo-5-(trifluoromethyl)-1,2-dihydropyridin-3-yl)ureido)piperidin-1-yl)-1H-pyrrolo[2,3-b]pyridin-3-yl)acetamide]: the Kd was less than 10 nM.
Consider `CC(=O)Nc1cnc(C2=CC[C@H](N(C)C(=O)Nc3cc(C(F)(F)F)cn(C)c3=O)CC2)cn1` [Example I-140-b, (R)—N-(5-(4-(1-methyl-3-(1-methyl-2-oxo-5-(trifluoromethyl)-1,2-dihydropyridin-3-yl)ureido)cyclohex-1-en-1-yl)pyrazin-2-yl)acetamide], for which the Kd was less than 10 nM.
In the case of `COc1n[nH]c2ncc(N3CC[C@@H](N(C)C(=O)Nc4cc(C(F)(F)F)cn(C)c4=O)[C@@H](OC)C3)cc12` [Example I-106-a, 1-((3S,4R)-3-methoxy-1-(3-methoxy-1H-pyrazolo[3,4-b]pyridin-5-yl)piperidin-4-yl)-1-methyl-3-(1-methyl-2-oxo-5-(trifluoromethyl)-1,2-dihydropyridin-3-yl)urea] it was less than 10 nM.
`CN(C(=O)Nc1cc(C(F)(F)F)cn(C)c1=O)C1CCN(c2cnn3cc(O[C@H]4CC[C@@H]4O)ncc23)CC1` [Example I-129-b, 1-(1-(6-((1S,2S)-2-hydroxycyclobutoxy)pyrazolo[1,5-a]pyrazin-3-yl)piperidin-4-yl)-1-methyl-3-(1-methyl-2-oxo-5-(trifluoromethyl)-1,2-dihydropyridin-3-yl)urea] displayed a dissociation constant (Kd) of less than 10 nM.
In the case of “(S)-1-methyl-3-(1-methyl-2-oxo-5-(trifluoromethyl)-1,2-dihydropyridin-3-yl)-1-(3-(3-((tetrahydrofuran-3-yl)oxy)-1H-pyrazolo[3,4-b]pyridin-5-yl)bicyclo[1.1.1]pentan-1-yl)urea and (R)-1-methyl-3-(1-methyl-2-oxo-5-(trifluoromethyl)-1,2-dihydropyridin-3-yl)-1-(3-(3-((tetrahydrofuran-3-yl)oxy)-1H-pyrazolo[3,4-b]pyridin-5-yl)bicyclo[1.1.1]pentan-1-yl)urea [Example I-166-b]” it was no less than 5000 nM; in that of `CN(C(=O)Nc1cc(C(F)(F)F)cn(C)c1=O)C1CCN(c2cnc3[nH]cc(C4CC4)c3n2)CC1` [Example I-40, 1-(1-(7-cyclopropyl-5H-pyrrolo[2,3-b]pyrazin-2-yl)piperidin-4-yl)-1-methyl-3-(1-methyl-2-oxo-5-(trifluoromethyl)-1,2-dihydropyridin-3-yl)urea], less than 10 nM.
`COCCOc1n[nH]c2ncc(N3CC[C@@H](N(C)C(=O)Nc4cc(C(F)(F)F)cn(C)c4=O)[C@@H](F)C3)cc12` [Example I-104-a, 1-((3S,4R)-3-fluoro-1-(3-(2-methoxyethoxy)-1H-pyrazolo[3,4-b]pyridin-5-yl)piperidin-4-yl)-1-methyl-3-(1-methyl-2-oxo-5-(trifluoromethyl)-1,2-dihydropyridin-3-yl)urea]: the Kd is less than 10 nM.
The compound `C[C@@H]1CN(c2cnc3[nH]ncc3c2)CC[C@@H]1N(C)C(=O)Nc1cc(C(F)(F)F)cn(C)c1=O` [Example I-70-a, 1-methyl-1-((3R,4S)-3-methyl-1-(1H-pyrazolo[3,4-b]pyridin-5-yl)piperidin-4-yl)-3-(1-methyl-2-oxo-5-(trifluoromethyl)-1,2-dihydropyridin-3-yl)urea] yielded a Kd of less than 10 nM.
For `COc1c[nH]c2ncc(N3CC[C@@H]4[C@@H](C3)OCCN4C(=O)Nc3cc(C(F)(F)F)cn(C)c3=O)nc12` [Example I-163-b, (4aR,8aR)-6-(7-methoxy-5H-pyrrolo[2,3-b]pyrazin-2-yl)-N-(1-methyl-2-oxo-5-(trifluoromethyl)-1,2-dihydropyridin-3-yl)octahydro-1H-pyrido[3,4-b][1,4]oxazine-1-carboxamide] the value was 10 to 50 nM.
In the case of `CC(=O)Nc1cnc(N2CCC(N(C)C(=O)Nc3cc(C(F)(F)F)cn(C)c3=O)CC2)cn1` [Example I-14, N-(5-(4-(1-methyl-3-(1-methyl-2-oxo-5-(trifluoromethyl)-1,2-dihydropyridin-3-yl)ureido)piperidin-1-yl)pyrazin-2-yl)acetamide] it was less than 10 nM.
In the case of `CN(C(=O)Nc1cc(C(F)(F)F)cn(C)c1=O)[C@H]1CCN(c2cnc3[nH]ncc3c2)CC1(F)F` [Example I-29-b, (S)-1-(3,3-difluoro-1-(1H-pyrazolo[3,4-b]pyridin-5-yl)piperidin-4-yl)-1-methyl-3-(1-methyl-2-oxo-5-(trifluoromethyl)-1,2-dihydropyridin-3-yl)urea] it was less than 10 nM.
`CN(C(=O)Nc1cc(C(F)(F)F)cn(C)c1=O)[C@@H]1CC=C(c2cnc3[nH]ccc3n2)CC1` (single isomer, unassigned) [Example I-82-a] yielded a Kd of less than 10 nM.
For `Cn1cc(C(F)(F)F)cc(NC(=O)N2CCCC23CCN(c2cnc4[nH]ncc4c2)CC3)c1=O` [Example I-50, N-(1-methyl-2-oxo-5-(trifluoromethyl)-1,2-dihydropyridin-3-yl)-8-(1H-pyrazolo[3,4-b]pyridin-5-yl)-1,8-diazaspiro[4.5]decane-1-carboxamide] the value was 10 to 50 nM.

The values above are taken from patent US20240116892A1, “HETEROCYCLIC AMIDE AND UREA COMPOUNDS AS JAK2 INHIBITORS” (Ajax Therapeutics, Inc., priority 2022, published 2024).
